{
  "source": "patent US10864273B2",
  "about": "“Thiobase compounds for photodynamic therapy” (CASE WESTERN RESERVE UNIVERSITY, priority 2015, dated 2020)",
  "key": {"[1]": {"experiment": "Femtosecond to microsecond transient absorption spectroscopy of the thiouracil series (intersystem crossing, triplet yield, triplet decay, triplet-triplet extinction)", "excerpt": "Briefly, 800 nm, 100 fs fundamental pulses were generated with a Ti-Sapphire regenerative amplifier laser system (Libra-HE, Coherent, Inc.: 4.0 W, 1 kHz). The fundamental beam was used to produce pump wavelengths of 320, 335, and 350 nm via an optical parametric amplifier (TOPAS, Quantronix/Light Conversion). Unwanted wavelengths were removed from the pump beam using a reflective wavelength filter and a Glan-Taylor polarizer. A fraction of the remaining fundamental beam was focused into a continuously moving CaF2 plate (2 mm thick) to generate broadband white light probe pulses (320-700 nm). The intensity of the excitation beam was attenuated to 1 mJ per pulse at the sample position. The polarization of the pump beam was randomized before being focused into the sample to overlap with the white light continuum probe at a 3:1 beam diameter ratio. Pump-probe experiments were collected using a Helios spectrometer (Ultrafast Systems, LLC) and a home-made data acquisition software (LabView, National Instruments, Inc.).\nSolutions of the 2tUra, 4tUra, and 2,4dtUra derivatives were prepared in aqueous phosphate-buffered saline at pH 7.4. […] Solutions were investigated in 2 mm optical path length quartz cells and the irradiated volume was continuously refreshed by stirring with a Teflon-coated magnetic stir bar. Contributions to the transient data from any putative photoproduct formation were prevented by replacing the solution with fresh stock solution every 5 scans, or before 6% sample degradation (as monitored by a decrease in the steady-state absorbance of the lowest-energy absorption band). The UVA excitation wavelength used was varied depending on the absorption spectrum of the specific thiouracil derivative investigated. For 2tUra, an excitation wavelength of 320 nm was used, whereas 2,4dtUra was excited at 335 and 350 nm, and 4tUra was excited at all three of these UVA wavelengths.\nDecay of the triplet state of 4tUra and 2,4dtUra to the ground state was monitored using the same excitation and detection setups but probing with an electronically triggered broadband white light source (Eos, Ultrafast Systems, LLC) that has been conveniently integrated into the Helios spectrometer. This probe source has a spectral window from B375 to 800 nm, a time resolution of about 400 ps, and a temporal window of up to 120 ms. […] Data were collected with the solutions under a constant nitrogen flow, and exciting at 350 nm with 3 mJ per pulse for 10 min, corresponding to less than 5% degradation.\nFor each data set, between 50 and 100 traces were selected across the entire range of probe wavelengths and globally analyzed in Igor Pro 6.32A (WaveMetrics, Inc.). […] 83 The uncertainties reported for the triplet population lifetimes are twice the standard deviation from the average fitting of at least three independent datasets (i.e., recorded on three different days). Triplet-triplet absorption spectra were extracted from the global fitting analysis."}, "[2]": {"experiment": "Singlet oxygen quantum yield by phosphorescence at 1270 nm, thiouracil series", "type": "physicochemical", "description": "Solutions of 4tUra, 2,4dtUra, and the singlet oxygen standard (phenalenone; ΦΔ=0.98) were prepared in acetonitrile, each with an absorbance of 0.3 at 355 nm in a 1×1 cm quartz cuvette. The solutions were purged with oxygen for 30 min, followed by the determination of quantum yields from back-toback measurements of the singlet oxygen phosphorescence intensity at 1270 nm. The O2-saturated solutions were excited at 355 nm (Spectra Physics GCR-150-30: 7 ns pulse width) and the phosphorescence at 1270 nm was detected with a NIR sensitive photomultiplier tube (H10330A-45, Hamamatsu).\nThe singlet oxygen (^1O2) quantum yields of 4tUra and 2,4dtUra were measured by monitoring the characteristic phosphorescence of ^1O2 at 1270 nm with nanosecond time resolution."}, "[3]": {"tested_on": "adenosine 5′-monophosphate (5′-AMP)", "experiment": "Photoreactivity with adenosine 5′-monophosphate upon 365 nm irradiation in N2-saturated buffer", "settings": "with 5′-AMP, 1:5 molar ratio (24 and 120 mM); 365 nm irradiation; N2-saturated aqueous buffer pH 7.4", "description": "Aqueous phosphate-buffered saline solutions, pH 7.4, containing either 4tUra or 2,4dtUra were prepared with and without 5′-AMP and loaded into 1×1 cm septum-top quartz cuvettes. The concentrations of the thiouracil derivatives and 5′-AMP were […], respectively. These concentrations were chosen in order to favor the bimolecular photoreaction between the thiouracil derivative and 50-AMP, while simultaneously maintaining the absorbance of the solutions within the linear dynamic range limit of the UV-visible spectrophotometer used. All solutions were purged with ultrapure nitrogen for 30 min and kept under constant nitrogen flow throughout the irradiation period. An optical parametric amplifier (TOPAS, Quantronix/Light Conversion) pumped by our Libra laser system (described above) was used for monochromatic (±1 nm) irradiation of the samples. […] Absorbance changes in the thiouracil solutions, with and without 5′-AMP, were monitored periodically using UV-visible spectroscopy (Cary 100 Bio) during irradiation at 365 nm for up to 90 min and while stored in the dark for up to three and a half days.\nIn order to scrutinize the light-induced reactivity of these sensitizers toward biomolecules, aqueous phosphate-buffered saline solutions of either 4tUra or 2,4dtUra were prepared in the presence of the RNA monomer adenosine 5′-monophosphate (5′-AMP) at a 1:5 molar ratio. […] The experimental conditions were chosen in order to facilitate the extraction of relative photoreaction rates from the changes in the steady-state absorption spectra with irradiation time. […]"}, "[4]": {"settings": "cited from earlier work"}, "[5]": {"experiment": "Femtosecond broadband transient absorption spectroscopy of the thiothymine series (intersystem crossing, triplet yield)", "type": "physicochemical", "description": "Femtosecond transient absorption spectroscopy was performed using a Ti— Sapphire regenerative amplifier laser system (Libra-HE, Coherent, Inc.; 800 nm, 100 fs, 4.0 W at 1 kHz). 2.6 W of the 800 nm beam were used to pump an optical parametric amplifier (TOPAS, Quantronix/Light Conversion) to generate the excitation beam at selected wavelengths of 320, 335, and 360 nm. Contributions to the excitation beam from other wavelengths and polarizations were removed by a reflective wavelength filter (λ-filter) and a Glan-Taylor polarizer, respectively, and the polarization was randomized using a depolarizing plate in order to prevent rotational effects from contributing to the dynamics, as described in details elsewhere.\nA Helios spectrometer (Ultrafast Systems, LLC.) was used for pump-probe measurements. A fraction of the fundamental (800 nm) beam from the Libra-HE was used to generate white light continuum (WLC). The Helios spectrometer uses an optical delay line with a maximum delay of ˜3 ns for the 800 nm beam, which was used to pump a continuously-moving 2 mm CaF2 plate for generation of the WLC broadband probe pulse covering the spectral range from ˜320-700 nm. The probe light was then passed through a 730 nm low-pass dichroic optical filter, so as to block residual fundamental beam and to avoid saturating the complementary metal-oxide-semiconductor (CMOS) detectors. The probe pulse was then split into two beams, both of which were recollimated and focused into the optical fibers leading to their respective CMOS detectors. In this setup, one of the beams serves as reference, while the other is used to probe the sample of interest. A synchronized chopper wheel was used to block every other pump pulse, such that the difference in absorption between two consecutive measurements gives the transient spectrum. The excitation beam was attenuated to 1 μJ/pulse at the sample using a neutral density optical filter before entering the spectrometer. The excitation pulse was focused to a beam diameter three times larger than that of the probe beam at the sample position. Detection time windows of 20 and 200 ps were used in this work.\nAll solutions were prepared using pH 7.4 aqueous phosphate buffer, with a total phosphate concentration of 16 mM. The solution was continuously stirred in a 2 mm optical path length quartz cell (Starna Cells, Inc.) using a Teflon-coated magnetic stirring bar so as to bring fresh sample to the pump-probe region for each measurement. The solution in the cuvette was replaced with a fresh sample, from the same stock solution, every 5-7 scans, so that all scans had no more than 5% decrease in absorbance at the lowest-energy absorption-band maximum as determined by steady-state absorption spectroscopy.\nAll broadband transient absorption data were corrected for group velocity dispersion (GVD) of the WLC using a home-made LabView program (National Instruments, Inc.) as previously described. 3 Analysis of transient absorption kinetics was performed in Igor Pro 6.32A (WaveMetrics, Inc.) using the target analysis method, as described previously, and a sequential kinetic model convoluted with an instrument response function of ˜200 fs (FWHM). The instrument response was determined from the coherence signal of neat methanol generated at the sample cell. Global fitting analysis was performed using 15 to 30 representative kinetic traces covering the full range of probe wavelengths. At least three independent datasets (i.e., recorded on three different days) were used in the analysis and all uncertainties are reported as twice the standard deviation of the average lifetime. Decay associated spectra shown in FIG. 7A were extracted from the global fitting analysis of the transient decay traces taken every third probe wavelength across the entire WLC range."}, "[6]": {"settings": "pH 7.4 phosphate buffer solution, cited from earlier work; for ΦT triplet quantum yield: previously reported values"}, "[7]": {"settings": "O2-saturated acetonitrile solution; previously measured / standard value; cited from earlier work"}, "[8]": {"experiment": "Steady-state absorption spectroscopy, thymine series", "type": "physicochemical", "settings": "phosphate buffer solution at pH 7.4", "description": "2-thiothymine (2tThy, 98% purity) was obtained from AK Scientific, 4-thiothymidine (4tThd, 99% purity) was obtained from Carbosynth Ltd., and 2-thiothymidine (2tThd) and 2,4-dithiothymine (2,4dtThy) were obtained from Sigma Aldrich. All compounds were used as received. The purity of these compounds was ensured by using fluorescence spectroscopy and by comparison with the published absorption maxima and their corresponding extinction coefficients. Phosphate buffer solutions were freshly prepared using 0.12 g of sodium dihydrogen phosphate and 0.089 g of disodium hydrogen phosphate dissolved in 100 mL of ultrapure water and adjusted to pH 7.4 using a 2 M NaOH solution. Steady-state absorption spectra were measured using a Cary 100 Bio spectrometer. All absorption spectra were corrected for the solvent background by subtraction of the absorption of the solvent.\nSpecifically, sulfur substitution of the C2 carbonyl in thymine results in about a 10 nm redshift in the absorption maximum, whereas substitution at the C4 position results in a redshift of about 70 nm. Remarkably, double-substitution results in about a 100 nm redshift of the lowest-energy absorption band of thymidine (ΔE=9905 cm^−1), without an appreciable change in the magnitude of the extinction coefficient at the corresponding wavelengths (1×10^4 M^−1 cm^−1). Replacement of an oxygen atom by a sulfur atom in a carbonyl bond is expected to shift the absorption spectrum to the red because the thiocarbonyl is weaker than the carbonyl bond and the excited electronic states in thiocarbonyl compounds are typically found at lower energies. However, the difference in bond strengths between a carbonyl and thiocarbonyl bond cannot solely explain the large spectral shift observed between 2tThy/2tThd and 4tThd. Furthermore, the redshift in the absorption spectrum of 2,4dtThy cannot simply be expressed as a linear combination of the absorption spectra of the 2tThy/2tThd and 4tThd derivatives. […] Glycosylation of 2tThy, generating 2tThd, results in a 2 nm redshift in the absorption maximum and about 2-fold increase in the molar absorptivity coefficients (FIG. 1B). The same effect has been previously documented in the natural bases and in other thiobases. Therefore, glycosylation of 2,4dtThy to form 2,4-dithiothymidine is expected to redshift the absorption spectrum slightly and to increase the molar absorptivity coefficients."}, "[9]": {"settings": "aqueous phosphate-buffered saline solution, pH 7.4"}},
  "note": "Read-outs that look alike come from different tables or passages of the source.",
  "data": [
    {"smiles": "O=c1[nH]ccc(=S)[nH]1", "note": "[4tUra, 4-thiouracil]", "values": [
      {"measurement": "τISC intersystem crossing lifetime", "setting": "[1]; [9]", "value": "240 ± 20", "unit": "fs"},
      {"measurement": "κT triplet-state decay rate", "setting": "[1]; aqueous phosphate-buffered saline solution, pH 7.4, 24 mM solutions, nitrogen-purged, 350 nm excitation", "value": "1.7 ± 0.3 10^6 s^−1"},
      {"measurement": "triplet-triplet extinction coefficient", "setting": "[1]; at 600 nm, singlet depletion method", "value": "3000 ± 600", "unit": "M⁻¹ cm⁻¹"},
      {"measurement": "ΦΔ singlet oxygen quantum yield", "setting": "[2]; O2-saturated acetonitrile, 355 nm excitation, phenalenone standard", "value": "0.49±0.02"},
      {"measurement": "1O2 yield relative to uracil", "setting": "[2]; excited to lowest-energy absorption band", "value": 3.3, "unit": "fold"},
      {"measurement": "1O2 yield", "setting": "[2]; following UVA excitation", "value": "ca. 50%"},
      {"measurement": "photoreaction rate", "setting": "[3]", "value": "(0.39±0.04)×10^−9 M s^−1"},
      {"measurement": "pKa", "setting": "[4]", "value": 8.0}
    ]},
    {"smiles": "Cc1cn([C@H]2C[C@H](O)[C@@H](CO)O2)c(=S)[nH]c1=O", "note": "[2tThd, 2-thiothymidine]", "values": [
      {"measurement": "τISC intersystem crossing lifetime", "setting": "[5]; pH 7.4 phosphate buffer solution, probe 600 nm", "value": "410 ± 60", "unit": "fs"},
      {"measurement": "ΦT triplet quantum yield", "setting": "[6]", "value": "0.9 ± 0.1"}
    ]},
    {"smiles": "Cc1c[nH]c(=S)[nH]c1=O", "note": "[2tThy, 2-thiothymine]", "values": [
      {"measurement": "ΦΔ singlet oxygen quantum yield", "setting": "[7]", "value": "0.36 ± 0.02"},
      {"measurement": "intersystem crossing rate increase relative to Thd", "setting": "[5]", "value": 1.2, "unit": "fold"},
      {"measurement": "ΦT triplet quantum yield", "setting": "[6]", "value": "0.9 ± 0.1"}
    ]},
    {"smiles": "Cc1cn([C@H]2C[C@H](O)[C@@H](CO)O2)c(=O)[nH]c1=O", "note": "[Thd, thymidine]", "values": [
      {"measurement": "ΦΔ singlet oxygen quantum yield", "setting": "[7]", "value": "0.07 ± 0.01"},
      {"measurement": "ΦT triplet quantum yield", "setting": "[6]", "value": "0.014 ± 0.001"},
      {"measurement": "τISC intersystem crossing lifetime", "setting": "[6]; recently reported value for thymidine", "value": 760, "unit": "fs"},
      {"measurement": "maximum of lowest-energy absorption band", "setting": "[8]", "value": "~267", "unit": "nm"},
      {"measurement": "ε at maximum of lowest-energy absorption band", "setting": "[8]", "value": "≈ 9.9×10^3 M^−1 cm^−1"}
    ]},
    {"smiles": "O=c1cc[nH]c(=S)[nH]1", "note": "[2tUra, 2-thiouracil]", "values": [
      {"measurement": "τISC intersystem crossing lifetime", "setting": "[1]; [9]", "value": "360 ± 30", "unit": "fs"},
      {"measurement": "pKa", "setting": "[4]", "value": 7.74}
    ]}
  ]
}
